Experimental data published in patent US6123959A, “Aqueous composition comprising active ingredients for the de-pigmentation of the skin” (Univera Pharmaceuticals, Inc., priority 1998, dated 2000).
Like-named read-outs stand apart in the source and are kept apart here.

Legend:
[1] = test system: tyrosinase; conditions: cited from earlier work; for mode of tyrosinase inhibition: Lineweaver Burk diagram
[2] = test system: tyrosinase; assay: in vitro tyrosinase inhibition assay (L-Dopa conversion to dopachrome, absorption at 475 nm); format: biochemical; conditions: pH 6.8
Experimental: An in vitro tyrosinase inhibition assay was carried out using a modification of the procedure described by Pomerantz […] J. Biol. Chem. 238:2351-2357. According to this method, the conversion of L-Dopa, a substrate of tyrosinase, into dopaquinone and then dopachrome is followed by monitoring absorption at 475 nm in a spectrophotometer. As the colored substance dopachrome absorbs light having a wavelength of 475 nm, a quantitative measurement of the time-related conversion and thus the activity of tyrosinase can be made.
Each sample was prepared in a 50 mM potassium phosphate buffer which had been adjusted to pH 6.8, and stabilized by the addition of 10% DMSO. Tyrosinase (48 u, "u" represents the activity units of an enzyme, measured in mM substratum conversion per minute) was added to each sample. A double assessment was carried out for each inhibitor, using two different starting concentrations of L-Dopa: 0.4 mM and 0.2 mM. Controls were also run using the same concentrations of uninhibited tyrosinase to serve as the neutral value. In the control samples the volume of inhibitor was replaced with 50 mM potassium phosphate buffer. The time-related difference in absorption, and thus the conversion of L-Dopa, was followed for a period of two minutes.
The conversion kinetics of the tyrosinase was measured upon addition of the following concentrations of inhibitor: arbutin (0.9 mM); aloesin (0.0192 mM; 0.0385 mM and 0.0769 mM) and with the respective combination of both of the inhibitors. Enzyme inhibition was determined from the difference between the inhibited and the uninhibited kinetics. It is worth noting that the compositions examined in this example contain no liposomes, as the penetration ability and bio-availability are of no significance in an in vitro test. The purpose of these in vitro studies was to determine the efficacy of the inhibitors (arbutin and aloesin) individually and combinations thereof.

[3] = test system: skin; conditions: cited from earlier work; for quantity required to achieve a similar effect, compared to hydroquinone: relative to quantity of hydroquinone used
[4] = test system: tyrosinase; conditions: cited from earlier work
[5] = test system: synthesis of melanin; conditions: cited from earlier work
[6] = test system: tyrosinase; assay: inhibitory effect on tyrosinase of octylaloesin compared to aloesin; format: biochemical

COc1cc(/C=C/C(=O)O[C@@H]2[C@@H](O)[C@H](O)[C@@H](CO)O[C@H]2c2c(O)cc(C)c3c(=O)cc(CC(C)=O)oc23)ccc1O [2"-O-feruloylaloesin]
mode of tyrosinase inhibition [1]: non-competitive inhibitors | inhibition of tyrosinase [1]: effective inhibitors of tyrosinase

CC(=O)Cc1cc(=O)c2c(C)cc(O)c([C@@H]3O[C@H](CO)[C@@H](O)[C@H](O)[C@H]3O)c2o1 [aloesin]
% Inhibition Tyrosinase ([2]; aloesin 0.0192 mM): 20% | % Inhibition Tyrosinase ([2]; aloesin 0.0385 mM): 32% | % Inhibition Tyrosinase ([2]; aloesin 0.0769 mM): 46% | mode of tyrosinase inhibition [1]: non-competitive inhibitors | inhibition of tyrosinase [1]: effective inhibitors of tyrosinase

OC[C@H]1O[C@@H](Oc2ccc(O)cc2)[C@H](O)[C@@H](O)[C@@H]1O [arbutin]
% Inhibition Tyrosinase ([2]; arbutin 0.9 mM): 29% | quantity required to achieve a similar effect, compared to hydroquinone [3]: over 100 times | mode of tyrosinase inhibition [4]: competitive inhibitors

O=C1O[C@H]([C@@H](O)CO)C(O)=C1O [ascorbic acid]
quantity required to achieve a similar effect, compared to hydroquinone [3]: 17 times | mode of tyrosinase inhibition [4]: competitive inhibitors

Oc1ccc(O)cc1 [hydroquinone]
side effects ([3]; applied over long periods of time): serious side effects | photosensitivity of the skin ([3]; exposed to UV light): increased photosensitivity | de-pigmentation (persistence) ([3]; in vivo): permanent de-pigmentation

O=c1cc(CO)occ1O [kojic acid]
mode of tyrosinase inhibition [4]: competitive inhibitors

CC/C=C\C/C=C\C/C=C\CCCCCCCC(=O)O [linolenic acid]
inhibition of the synthesis of melanin [5]: inhibit the synthesis of melanin

CCCCCCCCOc1cc(C)c2c(=O)cc(CC(C)=O)oc2c1[C@@H]1O[C@H](CO)[C@@H](O)[C@H](O)[C@H]1O [octylaloesin]
inhibitory effect on tyrosinase compared to aloesin [6]: significantly higher inhibitory effect on tyrosinase
